Results: PMC12818745 (ACS Chemical Neuroscience, 2025)

Biological target: T1, Aβ42 peptide (Homo sapiens, UniProt P05067)
T1 construct: Synthetic Aβ42 (GenScript) was dissolved in hexafluoro-2-propanol (HFIP); purchased GenScript; host or cells: chemical synthesis
Assay: TEM of Aβ42 fibril growth
Settings: Aβ42 10 μM, compound 50 μM, 6–48 h, 37 °C
Method: We selected compound 11r for further investigation of its ability to interfere with the Aβ42 aggregation process in vitro. The decision was based on the structural potential of the chromeno[3,4-b]-xanthone scaffold, the encouraging results for 11r, and its overall profile in our preliminary studies. […] The morphological changes of Aβ42 species were assessed through transmission electron microscopy (TEM), in the presence and absence of 11r. […] In the absence of 11r (Figure , top panels), as early as 6 h of incubation at 37 °C, (white arrow), short (white arrowhead) and long fibrils were detected. As incubation progressed, long fibrils were more abundant, while other species became scarce, resulting in bundles of tangled fibrils after 48 h (Figure ).
Synthetic Aβ42 (GenScript) was dissolved in hexafluoro-2-propanol (HFIP) (Merck) and left at room temperature (RT) for 48 h. Subsequently, the HFIP was removed using a stream of nitrogen, and the resulting powder was dissolved in dimethyl sulfoxide (DMSO) (Sigma-Aldrich) at a concentration of 2000 μM. […]
The βnalysis of the morphology and fibril formation of samples coincubated with Aβ42 (10 μM) (GenScript) and the selected compounds (50 μM) at different time-points (6, 12, 24, and 48 h) at 37 °C, was assessed through TEM. […]

T1 sequence (P05067 672-713 limits assumed): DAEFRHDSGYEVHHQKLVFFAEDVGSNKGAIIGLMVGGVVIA

For `COc1ccc2c(=O)c3cc4c(cc3oc2c1)-c1cc(Cl)ccc1OC4` [Compound 11r, 2-Chloro-11-methoxy-6H,8H-chromeno[3,4-b]xanthen-8-one], which “Effect on Aβ42 fibril morphology (TEM)” value is on record?
The value was “inhibiting Aβ42 fibrillogenesis”.
